Experimental data as given in PubChem BioAssay (NCI).
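A five-concentration, 48-hour dose response in 96-well plates underlies each endpoint, interpolated linearly between surrounding concentrations. TGI: total growth inhibition.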

Experiments:
Experiment in all cases: inhibition of tumour cell growth, NCI panel, 48 h
A549 NSCLC = test system: A549 NSCLC
CAKI-1 renal = test system: CAKI-1 renal
786-0 renal = test system: 786-0 renal
MCF7 breast = test system: MCF7 breast
NCI-H226 lung = test system: NCI-H226 lung
SNB-75 CNS = test system: SNB-75 CNS
OVCAR-5 ovarian = test system: OVCAR-5 ovarian
NCI-H460 lung = test system: NCI-H460 lung
SR leukemia = test system: SR leukemia
SW-620 colon = test system: SW-620 colon
A498 renal = test system: A498 renal
BT-549 breast = test system: BT-549 breast
SN12C renal = test system: SN12C renal
DU-145 prostate = test system: DU-145 prostate
UACC-257 melanoma = test system: UACC-257 melanoma
HS 578T breast = test system: HS 578T breast
K-562 leukemia = test system: K-562 leukemia
NCI-H522 lung = test system: NCI-H522 lung
U251 CNS = test system: U251 CNS
KM12 colon = test system: KM12 colon
SK-MEL-5 melanoma = test system: SK-MEL-5 melanoma
SK-MEL-28 melanoma = test system: SK-MEL-28 melanoma
IGROV1 ovarian = test system: IGROV1 ovarian
HOP-92 NSCLC = test system: HOP-92 NSCLC
HT29 colon = test system: HT29 colon
RXF 393 renal = test system: RXF 393 renal
UACC-62 melanoma = test system: UACC-62 melanoma
PC-3 prostate = test system: PC-3 prostate
OVCAR-3 ovarian = test system: OVCAR-3 ovarian
SF-539 CNS = test system: SF-539 CNS
SNB-19 CNS = test system: SNB-19 CNS
SF-295 CNS = test system: SF-295 CNS
COLO 205 colon = test system: COLO 205 colon
OVCAR-4 ovarian = test system: OVCAR-4 ovarian
SK-OV-3 ovarian = test system: SK-OV-3 ovarian
NCI/ADR-RES ovarian = test system: NCI/ADR-RES ovarian
MDA-N = test system: MDA-N
MOLT-4 leukemia = test system: MOLT-4 leukemia
OVCAR-8 ovarian = test system: OVCAR-8 ovarian
SK-MEL-2 melanoma = test system: SK-MEL-2 melanoma
TK-10 renal = test system: TK-10 renal
CCRF-CEM leukemia = test system: CCRF-CEM leukemia
EKVX NSCLC = test system: EKVX NSCLC
HL-60(TB) leukemia = test system: HL-60(TB) leukemia
RPMI-8226 leukemia = test system: RPMI-8226 leukemia
HOP-62 NSCLC = test system: HOP-62 NSCLC
LOX IMVI melanoma = test system: LOX IMVI melanoma
HCT-15 colon = test system: HCT-15 colon
HCT-116 colon = test system: HCT-116 colon
MDA-MB-435 = test system: MDA-MB-435
MDA-MB-231 breast = test system: MDA-MB-231 breast
ACHN renal = test system: ACHN renal
NCI-H23 lung = test system: NCI-H23 lung
HCC-2998 colon = test system: HCC-2998 colon
T-47D breast = test system: T-47D breast
UO-31 renal = test system: UO-31 renal
M14 melanoma = test system: M14 melanoma

Measured: TGI

O=c1n(CCCN2CCN(c3cccc(Cl)c3)CC2)nc2n1-c1ccc3ccccc3c1SC2
not listed: MDA-MB-231 breast | ACHN renal | NCI-H23 lung | HCC-2998 colon | T-47D breast | UO-31 renal | M14 melanoma
> 100 µM: all other assays above

CN1C[C@H]2[C@@H](C1=O)[C@H](c1ccc([N+](=O)[O-])cc1)ON2C
not listed: 786-0 renal | SNB-75 CNS | A498 renal | BT-549 breast | KM12 colon | RXF 393 renal | UACC-62 melanoma | SF-539 CNS | EKVX NSCLC
> 100 µM: all other assays above
